Data set [1] deals with phosphorylated c-Jun (p-c-Jun) in U2OS cells. The data set is described as follows: Dose-response western blot of c-Jun phosphorylation in sorbitol-treated U2OS cells. Type of data set: cell-based. The note with it: sorbitol 0.2 M, read-out: cellular EC50, c-Jun phosphorylation inhibition. The protocol: U2OS cells were incubated a day before the experiment in a six-well plate. On the day of the experiment, the cells underwent media change and were incubated with the compound containing 0.1% DMSO, or DMSO only, for 80 min. Sorbitol was then added to the concentration of 0.2 M for 40 min, except for an “untreated” well. After 40 min, the cells were harvested using Trypsin B and were washed with ice-cold PBS. The cells were lysed using a mixture of 50 μL of RIPA buffer (Sigma; R0278) and a protease inhibitor (Sigma; P8340) for 20 min, in which every 5 min, the cells undergo a 5 s vortex. After 20 min, cell lysates underwent a 20 min centrifuge at 4 °C at 21,000 rpm. The lysates were then separated from the cell membrane remains. Protein concentration was determined by the BCA analysis, and 35 μg of protein was taken from each sample, supplemented with 4× loading buffer that has 0.02 mM DTT, and heated for 10 min at 70 °C. […] The membrane was washed again with TBS-T three times for 10 min and reincubated with the blocking buffer for 30 min. […] The protocol repeats itself, using an anti-mouse HRP secondary antibody instead.
Quantification was done using ImageJ software.
Background: Immunoblotting shows a protein as a band on a membrane.

The target in data set [2] is T1, MKK7 (Homo sapiens, UniProt O14733).
T1 sequence (O14733 117-419 limits assumed): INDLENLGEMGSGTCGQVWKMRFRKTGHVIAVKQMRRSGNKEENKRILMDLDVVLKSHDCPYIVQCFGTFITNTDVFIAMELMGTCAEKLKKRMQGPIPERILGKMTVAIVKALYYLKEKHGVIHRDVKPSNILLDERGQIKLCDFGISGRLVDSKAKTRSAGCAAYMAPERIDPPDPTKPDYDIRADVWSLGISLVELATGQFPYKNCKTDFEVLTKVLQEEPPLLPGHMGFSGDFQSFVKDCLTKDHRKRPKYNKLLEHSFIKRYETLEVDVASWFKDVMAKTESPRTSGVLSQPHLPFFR
The data set is described as follows: Intact protein LC/MS labeling of recombinant MKK7. The note with it: 2 μM compound, 2 μM protein, 5 μM ATP, 5 mM MgCl2, 10 min, 4 °C.

Data set [3] concerns MKK7. The note with it: read-out: in vitro IC50; cited from earlier work.
In the next data set the test system is p-JNK. Also noted: method as in PMID 30768270. The note with it: read-out: EC50 in cells; cited from earlier work.
On the set-up of data set [4]: method as in PMID 30768270. The note with it: human liver microsome; cited from earlier work. (In general: Liver microsomes are vesicles of endoplasmic reticulum, rich in cytochrome P450 enzymes.)
The target in data set [5] is T2, MKK7 (Homo sapiens, UniProt O14733).
T2 construct: purchased Nanosyn, Santa Clara, CA (assay service)
T2 sequence (O14733 1-419): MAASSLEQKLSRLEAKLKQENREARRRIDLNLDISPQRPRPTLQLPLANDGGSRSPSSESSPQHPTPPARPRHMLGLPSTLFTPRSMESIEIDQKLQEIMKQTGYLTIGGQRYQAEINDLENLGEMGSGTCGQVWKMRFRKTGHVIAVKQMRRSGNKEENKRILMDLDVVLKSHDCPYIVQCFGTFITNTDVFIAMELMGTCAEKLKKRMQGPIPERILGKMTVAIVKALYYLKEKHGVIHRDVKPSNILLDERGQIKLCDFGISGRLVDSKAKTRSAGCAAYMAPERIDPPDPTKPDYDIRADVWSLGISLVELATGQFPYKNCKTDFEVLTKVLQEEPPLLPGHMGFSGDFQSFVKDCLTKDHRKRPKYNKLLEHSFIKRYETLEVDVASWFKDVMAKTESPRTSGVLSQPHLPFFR
The data set is described as follows: In vitro kinase activity assay (Nanosyn), MKK7 coupled with inactive JNK1. The note with it: MKK7 1 nM, 2 h preincubation, 2 μM ATP. The format is biochemical.

The target in another data set is T3, JNK (Homo sapiens, UniProt P45983).
T3 construct: purchased Nanosyn, Santa Clara, CA (assay service)
T3 sequence (P45983 whole entry): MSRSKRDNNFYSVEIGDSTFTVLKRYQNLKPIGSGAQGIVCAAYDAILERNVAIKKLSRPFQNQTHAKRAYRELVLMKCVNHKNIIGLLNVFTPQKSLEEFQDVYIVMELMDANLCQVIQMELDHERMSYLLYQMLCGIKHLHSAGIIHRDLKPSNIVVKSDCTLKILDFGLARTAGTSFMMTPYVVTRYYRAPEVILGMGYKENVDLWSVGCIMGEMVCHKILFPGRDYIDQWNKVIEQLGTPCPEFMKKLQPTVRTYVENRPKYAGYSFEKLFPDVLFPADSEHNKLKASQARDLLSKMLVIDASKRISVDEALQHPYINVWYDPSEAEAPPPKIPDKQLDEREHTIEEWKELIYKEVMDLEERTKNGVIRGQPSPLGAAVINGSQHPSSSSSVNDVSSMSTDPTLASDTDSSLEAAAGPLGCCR
The data set is described as follows: Coupled JNK/MKK7 in vitro kinase activity assay, second phase of biphasic curve. The format is biochemical. The note with it: second sigmoid of biphasic curve, higher concentrations. The protocol:
Test compounds were diluted in DMSO to a final concentration that ranged from 10 μM to 0.0565 nM, while the final concentration of DMSO in all assays was kept at 1%. The reference compound, Staurosporine, was tested in a similar manner as a positive control. […] After incubation (17 h), the activity of JNK1 activated by MKK7 was tested in the presence of 30 μM ATP.
Figure S11. A model of compound 1e based on the co-crystal structure of MKK7 in complex with
Note that the side-chains were not remodeled and may in fact adopt
a rotamer that places closer to the hydroxy moiety.
Figure S12. Biphasic in vitro kinase inhibition behavior by alkyne 2. In a coupled JNK/ MKK7 in
Each sigmoidal curve can be
(1 picture or pasted object on this page, not shown here)

Details of data set [6]: method as in PMID 30768270. The note with it: PAMPA; cited from earlier work. In general terms: The PAMPA barrier holds no transporters, so it reflects passive diffusion.

The structures appear in SMILES notation. pEC50, pIC50: −log10 of the molar value. Read-outs that look alike come from different tables or passages of the source. Bounds are passed on as bounds.

Data on 11 compounds can be found in publication PMC9376956, “Optimization of Covalent MKK7 Inhibitors via Crude Nanomole-Scale Libraries” (Journal of Medicinal Chemistry, 2022).

By pEC50 is commonly meant the negative decadic logarithm of the EC50, by convention in mol/L. One may read the pIC50 as the negative decadic logarithm of the IC50, by convention in mol/L.

Take `C=CC(=O)Nc1cc(C(=O)NCc2cn(-c3ccccc3C)nn2)cc(-c2n[nH]c3ccccc23)c1` [2b, 3-Acrylamido-5-(1H-indazol-3-yl)-N-((1-(o-tolyl)-1H-1,2,3-triazol-4-yl)methyl)benzamide]: the pEC50 was around 5.52 in data set [1] (Homo sapiens, U2OS) and above 5.52 in data set [1].
On to `C=CC(=O)N1CCC[C@@H](n2nc(-c3cn(-c4ccc(Cl)cc4O)nn3)c3c(N)ncnc32)C1` [1d, (R)-1-(3-(4-Amino-3-(1-(4-chloro-2-hydroxyphenyl)-1H-1,2,3-triazol-4-yl)-1H-pyrazolo[3,4-d]pyrimidin-1-yl)piperidin-1-yl)prop-2-en-1-one], for which the pEC50 in data set [1] (Homo sapiens, U2OS) was 5.96.
Regarding `C=CC(=O)Nc1cc(C(=O)NCc2cn(CCOC)nn2)cc(-c2n[nH]c3ccccc23)c1` [2d, 3-Acrylamido-5-(1H-indazol-3-yl)-N-((1-(2-methoxyethyl)-1H-1,2,3-triazol-4-yl)methyl)benzamide], the “% MKK7 labeling” value on MKK7 [2] is 100%.
For `C=CC(=O)N1CCC[C@@H](n2nc(-c3cn(-c4ccc(C(C)=O)cc4)nn3)c3c(N)ncnc32)C1` [1g], the “% MKK7 labeling” value on MKK7 [2] was found to be 89%. The pIC50 in the data set with MKK7 [3] is 8.00. Moreover, in the data set on p-JNK, the pEC50 was around 6.40. Further, the “CL HLM” value in data set [4] was 0.154 µL/min/mg.
As to `C#CCNC(=O)c1cc(NC(=O)C=C)cc(-c2n[nH]c3ccccc23)c1` [compound 2, 3-Acrylamido-5-(1H-indazol-3-yl)-N-(prop-2-yn-1-yl)benzamide], the “% MKK7 labeling” value on MKK7 [2] is on record as 100%. Besides, the pIC50 against MKK7 [5] is 9.22; against JNK, 5.70. The pEC50 in data set [1] (Homo sapiens, U2OS) was above 7.00.
In the case of `C=CC(=O)N1CCC[C@@H](n2nc(-c3ccc(Oc4ccccc4)cc3)c3c(N)ncnc32)C1` [ibrutinib], in data set [6], the permeability was 38 %flux.
In the case of `C=CC(=O)N1CCC[C@@H](n2nc(-c3cn(C[C@H](O)c4ccc(Br)cc4)nn3)c3c(N)ncnc32)C1` [1e, 1-((R)-3-(4-Amino-3-(1-((R)-2-(4-bromophenyl)-2-hydroxy-ethyl)-1H-1,2,3-triazol-4-yl)-1H-pyrazolo[3,4-d]pyrimidin-1-yl)piperidin-1-yl)prop-2-en-1-one], the pEC50 in data set [1] (Homo sapiens, U2OS) is below 6.30.
As to `C=CC(=O)N1CCC[C@@H](n2nc(-c3cn(CC(F)(F)c4ccccc4)nn3)c3c(N)ncnc32)C1` [1k, (R)-1-(3-(4-Amino-3-(1-(2,2-difluoro-2-phenylethyl)-1H-1,2,3-triazol-4-yl)-1H-pyrazolo[3,4-d]pyrimidin-1-yl)piperidin-1-yl)prop-2-en-1-one], the pIC50 on MKK7 [5] was 8.40. Besides, the pEC50 in data set [1] (Homo sapiens, U2OS) was 6.58.
Take `C#Cc1nn([C@@H]2CCCN(C(=O)C=C)C2)c2ncnc(N)c12` [compound 1]: the pIC50 against MKK7 [5] was 7.52. Moreover, the pEC50 in data set [1] (Homo sapiens, U2OS) was below 5.00.
`C=CC(=O)Nc1cc(C(=O)NCc2cn([C@@H]3CCCC[C@H]3OC)nn2)cc(-c2n[nH]c3ccccc23)c1` [2a, rac-3-Acrylamido-5-(1H-indazol-3-yl)-N-((1-((trans-)-2-methoxycyclohexyl)-1H-1,2,3-triazol-4-yl)methyl)benzamide] showed a pIC50 at MKK7 [5] of 7.52. In addition, in data set [1] (Homo sapiens, U2OS), the pEC50 is below 5.00.
`C=CC(=O)Nc1cc(C(=O)NCc2cn(C3CCC3)nn2)cc(-c2n[nH]c3ccccc23)c1` [2c, 3-Acrylamido-N-((1-cyclobutyl-1H-1,2,3-triazol-4-yl)methyl)-5-(1H-indazol-3-yl)benzamide]: the pEC50 in data set [1] (Homo sapiens, U2OS) is below 5.30.
